How the values were obtained:
Assay in all cases: relative viability (nuclei count vs DMSO), 5 days (fraction); higher = more cells survive
NCI-H661 = system: NCI-H661
Outline: (§1)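 The day after seeding in 1536-well plates, lung cancer cell lines were treated by pin tool with a single drug, or with a fixed anchor-drug dose together with five library-drug doses (not always all listed) in √10 steps. After 5 days, a combined fix-and-stain solution (final 0.05% Triton X-100, 1% formaldehyde, 1 ug/ml Hoechst) was added. Nuclei counted on 4× images gave relative viability as treated counts over vehicle counts, reported as the median of duplicate plates.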

NCI-H441 = system: NCI-H441
Outline: as §1

NCI-H460 = system: NCI-H460
Outline: as §1

ABC-1 = system: ABC-1
Outline: as §1

NCI-H727 = system: NCI-H727
Outline: as §1

HCC-366 = system: HCC-366
Outline: as §1

NCI-H1666 = system: NCI-H1666
Outline: as §1

NCI-H3122 = system: NCI-H3122
Outline: as §1

NCI-H2009 = system: NCI-H2009
Outline: as §1

LK-2 = system: LK-2
Outline: as §1

BEN = system: BEN
Outline: as §1

In the case of `O=c1cc(N2CCOCC2)oc2c(-c3cccc4c3sc3ccccc34)cccc12` + CC(=O)c1c(C)c2cnc(Nc3ccc(N4CCNCC4)cn3)nc2n(C2CCCC2)c1=O [Palbociclib] (partner 0.5 µM), the relative viability (NCI-H661; first compound 0.01 µM) is reported as 0.417, the relative viability (NCI-H661; first compound 0.03162 µM) is reported as 0.41 and the relative viability (NCI-H661; first compound 0.1 µM) is reported as 0.375. For the same compound, the relative viability (NCI-H661; first compound 0.3162 µM) was 0.416, the relative viability (NCI-H661; first compound 1 µM) was 0.398 and the relative viability (NCI-H441; first compound 0.01 µM) was 0.21. It also gave a relative viability (NCI-H441; first compound 0.03162 µM) of 0.217, a relative viability (NCI-H441; first compound 0.1 µM) of 0.207 and a relative viability (NCI-H441; first compound 0.3162 µM) of 0.233. It also gave a relative viability (NCI-H441; first compound 1 µM) of 0.222, a relative viability (NCI-H460; first compound 0.01 µM) of 0.178 and a relative viability (NCI-H460; first compound 0.03162 µM) of 0.18. It also gave a relative viability (NCI-H460; first compound 0.1 µM) of 0.198, a relative viability (NCI-H460; first compound 0.3162 µM) of 0.215 and a relative viability (NCI-H460; first compound 1 µM) of 0.135. The relative viability (ABC-1; first compound 0.01 µM) was 0.644, the relative viability (ABC-1; first compound 0.03162 µM) was 0.797 and the relative viability (ABC-1; first compound 0.1 µM) was 0.699. It also gave a relative viability (ABC-1; first compound 0.3162 µM) of 0.619, a relative viability (ABC-1; first compound 1 µM) of 0.578 and a relative viability (NCI-H727; first compound 0.01 µM) of 0.66. For the same compound, the relative viability (NCI-H727; first compound 0.03162 µM) was 0.6, the relative viability (NCI-H727; first compound 0.1 µM) was 0.624 and the relative viability (NCI-H727; first compound 0.3162 µM) was 0.699. It also gave a relative viability (NCI-H727; first compound 1 µM) of 0.737, a relative viability (HCC-366; first compound 0.01 µM) of 0.371 and a relative viability (HCC-366; first compound 0.03162 µM) of 0.417. It also gave a relative viability (HCC-366; first compound 0.1 µM) of 0.409, a relative viability (HCC-366; first compound 0.3162 µM) of 0.367 and a relative viability (HCC-366; first compound 1 µM) of 0.382. The relative viability (NCI-H1666; first compound 0.01 µM) was 0.663, the relative viability (NCI-H1666; first compound 0.03162 µM) was 0.593 and the relative viability (NCI-H1666; first compound 0.1 µM) was 0.709. The relative viability (NCI-H1666; first compound 0.3162 µM) was 0.651, the relative viability (NCI-H1666; first compound 1 µM) was 0.643 and the relative viability (NCI-H3122; first compound 0.01 µM) was 0.171. The relative viability (NCI-H3122; first compound 0.03162 µM) was 0.183, the relative viability (NCI-H3122; first compound 0.1 µM) was 0.167 and the relative viability (NCI-H3122; first compound 0.3162 µM) was 0.177. For the same compound, the relative viability (NCI-H3122; first compound 1 µM) was 0.161, the relative viability (NCI-H2009; first compound 0.01 µM) was 0.234 and the relative viability (NCI-H2009; first compound 0.03162 µM) was 0.25. It also gave a relative viability (NCI-H2009; first compound 0.1 µM) of 0.22, a relative viability (NCI-H2009; first compound 0.3162 µM) of 0.177 and a relative viability (NCI-H2009; first compound 1 µM) of 0.158. The relative viability (LK-2; first compound 0.01 µM) was 0.83, the relative viability (LK-2; first compound 0.03162 µM) was 0.768 and the relative viability (LK-2; first compound 0.1 µM) was 0.587. It also gave a relative viability (LK-2; first compound 0.3162 µM) of 0.638, a relative viability (LK-2; first compound 1 µM) of 0.77 and a relative viability (BEN; first compound 0.01 µM) of 0.427. The relative viability (BEN; first compound 0.03162 µM) was 0.476, the relative viability (BEN; first compound 0.1 µM) was 0.476 and the relative viability (BEN; first compound 0.3162 µM) was 0.514.

From the supplement of paper PMC10307832
